Where two headings read alike, the source gives them in different places.
Experiments:
[1] = test system: ERK1 phosphorylation of its substrate RSK in HT29 cells; experiment: pRSK MSD Assay in HT29 cells; assay type: cell-based; conditions: Homo sapiens
Protocol: The protocol below describes an assay to measure the kinase activity of ERK1 to phosphorylate its substrate, RSK, in the presence of a test compound. This experiment was conducted using a Mesoscale Discovery plate. The day before the assay, HT29 cells were split and plated at 50,000 cells/well in complete growth media. After allowing cells to adhere, the media was removed and replaced with media containing 0.1% FBS and incubated overnight. Blank MDS plates were coated with 25 μl/well RSK capture antibody and incubated at 4° C. overnight. The next day, the media was removed and replaced with 100 μl of media containing a test compound and incubated for 120 minutes at 37° C. The media was removed and replaced with 55 μl of well lysis buffer with protease and phosphatase inhibitors provided in the kit, followed by incubation at 4° C. for 30 minutes. 50 μl of lysate was transferred to a blocked MSD plate, followed by incubation at room temperature for 2 hours under constant shaking. The plate was washed 3 times with MSD wash buffer (cat#R617TX), and 25 μl/well phospho-RSK (pRSK) detection antibody was added with an appropriate Sulfo-tagged anti-species detection antibody diluted in 1% BSA in MSD wash buffer. This mixture was incubated for 1 hour at room temperature under constant shaking. The plate was washed 3 times, and 150 μl 1×MSD read buffer was added, followed by signal detection in an MSD plate reader.

Erk1 = Erk1 (Homo sapiens (Human), UniProt P27361); experiment: Protein Mass Modification Assay (intact protein MALDI); assay type: binding
Summary of the method: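 Percent covalent modification comes from the intact-protein MALDI centroid mass shift, treated versus control, divided by compound MW. Before analysis, human Erk1 was exposed to compound at 10-fold excess over protein for 60 min at room temperature.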

MEK1 activated ERK1 = MEK1 activated ERK1 (Homo sapiens (Human), UniProt P27361); experiment: Omnia continuous-read kinase assay for potency against MEK1 activated ERK1; assay type: biochemical
Summary of the method: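 Apparent IC50 came from initial reaction slopes (RFU vs time) plotted against log inhibitor with a variable-slope fit. Reactions were started with ERK1 (4 nM final) added to 50 μM ATP, roughly at its appKM, and 10 μM Sox-conjugated ST17 peptide in 20 mM Tris pH 7.5, 5 mM MgCl2. Fluorescence was monitored every 71 seconds.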

[2] = HT-29, HT29 cells, read-out: ERK1 PRSK MSD HT29 EC50
[3] = MEK1 activated ERK1, WT, ATP at KM
[4] = read-out: ERK1 Omnia WT ATP KM IC50

MEK1 activated ERK1, sequence (P27361 whole entry): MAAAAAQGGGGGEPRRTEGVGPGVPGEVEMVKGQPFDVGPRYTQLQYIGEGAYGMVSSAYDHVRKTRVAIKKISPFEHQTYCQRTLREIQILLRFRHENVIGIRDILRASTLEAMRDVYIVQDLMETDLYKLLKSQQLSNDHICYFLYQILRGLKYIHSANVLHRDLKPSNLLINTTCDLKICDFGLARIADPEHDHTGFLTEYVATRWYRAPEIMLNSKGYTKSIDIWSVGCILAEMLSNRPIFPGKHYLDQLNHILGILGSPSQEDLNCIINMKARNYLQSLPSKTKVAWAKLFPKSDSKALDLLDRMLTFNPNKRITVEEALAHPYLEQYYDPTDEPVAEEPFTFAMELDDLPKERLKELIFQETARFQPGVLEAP
Erk1, sequence (P27361 whole entry, looked up): as the sequence (P27361 whole entry) above

Compound	EC50 [1, 2] [nM]	ERK1 Mass Mod (%) (Erk1)	EC50 ([1]; HT-29, read-out: ERK1 PRSK MSD HT29 EC50 (nM)) [nM]	IC50 (MEK1 activated ERK1; [3]) [nM]	IC50 (MEK1 activated ERK1; [4]) [nM]
C=CC(=O)Nc1ccccc1Nc1nc(Nc2cc(OC)nc(N3CCN(C(C)=O)CC3)c2)ncc1C(F)(F)F [Compound I-92]	< 100	E (provided a mass modification of ≧70%)			
C=CC(=O)Nc1ccccc1Nc1nc(N[C@H]2CC[C@H](C(N)=O)CC2)ncc1C(F)(F)F [Compound I-16, 4-((4-((2-acrylamidophenyl)amino)-5-(trifluoromethyl)pyrimidin-2-yl)amino) -trans-cyclohexanecarboxamide]	501 to 999	E (provided a mass modification of ≧70%)			
C=CC(=O)Nc1cc(C)ccc1Nc1nc(Nc2cc(C(C)=O)ccc2C)ncc1C(F)(F)F [Compound I-84, N-(2-((2-((5-Acetyl-2-methylphenyl)amino)-5-(trifluoromethyl)pyrimidin-4-yl)amino)-5-methylphenyl)acrylamide]		E (key: E: provided a mass modification of ≧70%; F: provided a mass modification of 31-69%; G: proived a mass modification ≦30%)	101 to 500		
C=CC(=O)Nc1ccccc1Nc1nc(N[C@H]2CCCN(S(C)(=O)=O)C2)ncc1Cl [Compound I-125, (S)—N-(2-((5-chloro-2-((1-(methylsulfonyl)piperidin-3-yl)amino)pyrimidin-4-yl)amino)phenyl)acrylamide]		E (provided a mass modification of ≧70%)		< 100	
C=CC(=O)Nc1ccccc1Nc1nc(Nc2ccc(NC(C)=O)cc2C(F)(F)F)ncc1Cl [Compound I-150, N-(2-((2-((4-acetamido-2-(trifluoromethyl)phenyl)amino)-5-chloropyrimidin-4-yl)amino)phenyl)acrylamide]		E (provided a mass modification of ≧70%)		> 1000	
C=CC(=O)Nc1ccccc1Nc1nc(Nc2ccc(N3CCC[C@@H]3CO)cc2C#N)ncc1Cl [Compound I-171, (R)—N-(2-((5-chloro-2-((2-cyano-4-(2-(hydroxymethyl)pyrrolidin-1-yl)phenyl)amino)pyrimidin-4-yl)amino)phenyl)acrylamide]		E (provided a mass modification of ≧70%)		> 1000	
C=CC(=O)Nc1cc(C)ccc1Nc1nc(N[C@H]2CCCN(C(C)=O)C2)ncc1Cl [Compound I-139, (S)—N-(2-((2-((1-acetylpiperidin-3-yl)amino)-5-chloropyrimidin-4-yl)amino)-5-methylphenyl)acrylamide]		E (key: E: provided a mass modification of ≧70%; F: provided a mass modification of 31-69%; G: proived a mass modification ≦30%)			< 100
C=CC(=O)Nc1ccccc1Nc1nc(Nc2ccc(OCCCNC(=O)CCCC(=O)NCCCOCCOCCOCCCNC(=O)CCCC[C@H]3SC[C@H]4NC(=O)N[C@H]43)cc2OC)ncc1Cl [Compound I-302, N^1-(3-(4-((4-((2-acrylamidophenyl)amino)-5-chloropyrimidin-2-yl)amino)-3-methoxyphenoxy)propyl)-N^5-(15-oxo-19-((3aR,4R,6aS)-2-oxohexahydro-1H-thieno[3,4-d]imidazol-4-yl)-4,7,10-trioxa-14-azanonadecyl)glutaramide]		E (provided a mass modification of ≧70%)		> 1000	
C=CC(=O)N(C)c1ccccc1Nc1nc(Nc2cc(C(=O)NOCCO)ccc2C#N)ncc1Cl [Compound I-204, 3-((5-chloro-4-((2-(N-methylacrylamido)phenyl)amino)pyrimidin-2-yl)amino)-4-cyano-N-(2-hydroxyethoxy)benzamide]		F (provided a mass modification of 31-69%)		> 1000	
C=C(C)S(=O)(=O)Nc1ccccc1Nc1nc(N[C@H]2CCCN(C(=O)CO)C2)ncc1C(F)(F)F [Compound I-46, (S)—N-(2-((2-((1-(2-Hydroxyacetyl)piperidin-3-yl)amino)-5-(trifluoromethyl)pyrimidin-4-yl)amino)phenyl)prop-1-ene-2-sulfonamide]		G (proived a mass modification ≦30%)		< 100	
C=CC(=O)Nc1ccccc1Oc1ccnc(Nc2ccc(N3CCN(C(C)=O)CC3)cc2OC)n1 [Compound I-261, N-(2-((2-((4-(4-acetylpiperazin-1-yl)-2-methoxyphenyl)amino)pyrimidin-4-yl)oxy)phenyl)acrylamide]		G (proived a mass modification ≦30%)		> 1000	
CCC(=O)Nc1ccccc1Nc1nc(N[C@H]2CCCN(C(=O)CO)C2)ncc1C(F)(F)F [Compound I-318, (S)—N-(2-((2-((1-(2-hydroxyacetyl)piperidin-3-yl)amino)-5-(trifluoromethyl)pyrimidin-4-yl)amino)phenyl)propionamide]		G (proived a mass modification ≦30%)		< 100	
C=CS(=O)(=O)N[C@@H]1CCCC[C@H]1Nc1nc(N[C@H]2CCCN(C(=O)CO)C2)ncc1C(F)(F)F [Compound I-36, N-((1R,2R)-2-((2-(((S)-1-(2-Hydroxyacetyl)piperidin-3-yl)amino)-5-(trifluoromethyl)pyrimidin-4-yl)amino)cyclohexyl)ethenesulfonamide]		E (provided a mass modification of ≧70%)		< 100	
C=CC(=O)Nc1cc(OC)ccc1Oc1nc(Nc2ccc(N3CCC[C@@H]3CO)cc2OC)ncc1C(N)=O [Compound I-264, (R)-4-(2-acrylamido-4-methoxyphenoxy)-2-((4-(2-(hydroxymethyl)pyrrolidin-1-yl)-2-methoxyphenyl)amino)pyrimidine-5-carboxamide]		F (key: E: provided a mass modification of ≧70%; F: provided a mass modification of 31-69%; G: proived a mass modification ≦30%)			501 to 999
C=CC(=O)N[C@H]1CCCC1Nc1nc(N[C@H]2CCCN(C(C)=O)C2)ncc1C(F)(F)F (stereo in doubt) [Compound I-24, N-((1S,2S)-2-((2-(((S)-1-Acetylpiperidin-3-yl)amino)-5-(trifluoromethyl)pyrimidin-4-yl)amino)cyclopentyl)acrylamide]		G (proived a mass modification ≦30%)		> 1000	
C=CC(=O)Nc1ccccc1Nc1nc(Nc2ccnc(NC)c2)ncc1C(F)(F)F [Compound I-321, N-(2-((2-((2-(methylamino)pyridin-4-yl)amino)-5-(trifluoromethyl)pyrimidin-4-yl)amino)phenyl)acrylamide]		E (provided a mass modification of ≧70%)		> 1000	
C=CC(=O)Nc1ccccc1Nc1nc(Nc2ccc(N3CCC[C@H]3CO)cc2C#N)ncc1Cl [Compound I-160, (S)—N-(2-((5-chloro-2-((2-cyano-4-(2-(hydroxymethyl)pyrrolidin-1-yl)phenyl)amino)pyrimidin-4-yl)amino)phenyl)acrylamide]		G (proived a mass modification ≦30%)		> 1000	
C=CC(=O)Nc1cc(OC)ccc1Oc1nc(Nc2ccc(N3CCC[C@@H]3C(N)=O)cc2OC)ncc1C(N)=O [Compound I-262, (R)-4-(2-acrylamido-4-methoxyphenoxy)-2-((4-(2-carbamoylpyrrolidin-1-yl)-2-methoxyphenyl)amino)pyrimidine-5-carboxamide]		F (provided a mass modification of 31-69%)		> 1000	
C=C(C)S(=O)(=O)Nc1cc(C)ccc1Nc1nc(NC2CCC(=O)CC2)ncc1C(F)(F)F [Compound I-53, N-(5-Methyl-2-((2-((4-oxocyclohexyl)amino)-5-(trifluoromethyl)pyrimidin-4-yl)amino)phenyl)prop-1-ene-2-sulfonamide]		G (proived a mass modification ≦30%)		< 100	
CC#CC(=O)Nc1ccccc1Nc1nc(N[C@H]2CCCN(C(=O)CO)C2)ncc1C(F)(F)F [Compound I-29, (S)—N-(2-((2-((1-(2-Hydroxyacetyl)piperidin-3-yl)amino)-5-(trifluoromethyl)pyrimidin-4-yl)amino)phenyl)but-2-ynamide]		G (proived a mass modification ≦30%)		> 1000	
C=CC(=O)Nc1cc(C)ccc1Nc1nc(N[C@@H]2CCCN(S(=O)(=O)C=C)C2)ncc1C(F)(F)F [Compound I-278, (R)—N-(5-Methyl-2-((5-(trifluoromethyl)-2-((1-(vinylsulfonyl)piperidin-3-yl)amino)pyrimidin-4-yl)amino)phenyl)acrylamide]		F (provided a mass modification of 31-69%)		> 1000	
C=CC(=O)Nc1cc(OC)ccc1Nc1nc(Nc2cc(C(N)=O)ccc2C)ncc1Cl [Compound I-237, 3-((4-((2-acrylamido-4-methoxyphenyl)amino)-5-chloropyrimidin-2-yl)amino)-4-methylbenzamide]		E (provided a mass modification of ≧70%)		< 100	

Reference: patent US9796700B2 (Celgene CAR LLC, priority 2013, dated 2017)
